The values that follow are results of earlier work, collected in patent publication US20250352504A1, “LEVOCARNITINE AND TRIMETAZIDINE BILAYER TABLET AND PREPARATION METHOD THEREOF” (Changzhou High-tech Industrial Development Zone 3D …, priority 2024, published 2025).

The structures appear in SMILES notation. Structures can show the parent of a compound that is named as a salt. Where two headings read alike, the source gives them in different places.

The conditions of data set [1]: crystalline powder.

Take `C[N+](C)(C)C[C@H](O)CC(=O)[O-]` [Levocarnitine, (3R)-3-hydroxy-4-(trimethylammonio) butanoate]: in data set [1], the hygroscopicity entry is recorded as “strong hygroscopicity”. In addition, the solubility entry (acetone) is recorded as “almost insoluble”; the solubility result (ethanol) was “readily soluble”; the solubility entry (ether) is “almost insoluble”; the solubility result (formic acid) is given as “easily soluble”; the solubility entry (water) was “readily soluble”.

As to `COc1ccc(CN2CCNCC2)c(OC)c1OC` [Trimetazidine dihydrochloride, 1-(2,3,4-Trimethoxybenzyl) piperazine dihydrochloride], the solubility result (0.1 mol/L hydrochloric acid solution) is listed as “highly soluble”; the solubility entry (0.1 mol/L sodium hydroxide solution) was “highly soluble”; the solubility entry (acetic acid) is given as “easily soluble”; the solubility entry (ethanol) is on record as “slightly soluble”; the solubility result (ether) is given as “almost insoluble”; the solubility result (methanol) is given as “soluble”. Moreover, the solubility result (water) is “highly soluble”.
